Patent publication US20230364119A1, “AUTOPHAGY ACTIVATOR” (Resonac Corporation, priority 2020, published 2023)

Assays:
[1] = tested on: LC3 gene; assay: LC3 gene expression promoting effect in human senescent fibroblasts (quantitative real-time PCR); format: cell-based
Procedure: (§1) Senescent fibroblasts were prepared by the following procedure.
(§2) Normal human fibroblasts (NB1RGB, RIKEN BRC Cell Bank) were cultured until confluent in D-MEM medium (manufactured by Sigma-Aldrich) to which 10% fetal bovine serum (manufactured by MP Biomedicals) was added. Thereafter, the cells were treated with 250 μM aqueous hydrogen peroxide for 2 hours, and cultured for 24 hours in D-MEM medium to which fresh 10% fetal bovine serum was added. The treatment with aqueous hydrogen peroxide and the cell culture operation were repeated three times, and the obtained fibroblasts were used as senescent fibroblasts.
(§3) The prepared senescent fibroblasts were prepared at a seeding density of 10000 cells/cm^2 and cultured for 24 hours in D-MEM medium (manufactured by Sigma-Aldrich) to which 10% fetal bovine serum (manufactured by MP Biomedicals) was added. […]
(§4) Then, using Nucleospin (registered trademark) RNA kit (manufactured by Takara Bio Inc.), RNA was extracted from senescent fibroblasts or normal human fibroblasts in each example, and cDNA was synthesized from the obtained RNA. Next, using this cDNA as a template, by quantitative real-time PCR, the expression level of each gene was quantified using primers (manufactured by Takara Bio Inc.) specific to the LC3 gene, ATG5 gene, and Beclin 1 gene, respectively. […]

[2] = tested on: Beclin 1 gene; assay: Beclin 1 gene expression promoting effect in human senescent fibroblasts (quantitative real-time PCR); format: cell-based
Procedure: as §1, §2, §3, §4

[3] = 24 hours, 10^−3% (V/V) inositol or inositol derivative A, with the vitamin derivative of the example where added, GAPDH-standardized, Comparative Example 1 (purified water) = 1.00
[4] = compared to Comparative Example 1 (purified water only)

**Q.** What does the source list for `O[C@H]1[C@H](O)[C@@H](O)[C@H](O)[C@@H](O)[C@H]1O` [Comparative Example 2, myo-inositol]?
**A.** Relative gene expression level LC3 [1, 3]: 0.77; expression level of the LC3 gene, in words [1, 4]: more decreased; Relative gene expression level Beclin 1 [2, 3]: 1.30; expression level of the Beclin 1 gene, in words [2, 4]: more increased
